Here are results for seven compounds from patent US20180360791A1, “FATTY ACID MONOGLYCERIDE COMPOSITIONS” (Stiefel Laboratories, Inc., priority 2009, published 2018).

Values after ≈ are worked out from the molar mass of the structure shown. Where a name gives a salt, the structure may show the parent alone.

Experiment [1] concerns Trichophyton mentagrophytes. The experiment is described as follows: Liquid broth assay (MIC). Particulars: for MIC: Trichophyton mentagrophytes, 672 h, liquid (broth) culture, incubated up to 4 weeks, one value without distinguishing the two dermatophytes, read-out: minimal inhibitory concentration (MIC); for antifungal activity ranking: liquid broth assay, rank 1 = most active, same ranking for both dermatophytes. The class given is cell-based. On the procedure:
(§1) The minimum inhibitory concentration (MIC) of various test agents were tested in a standard protocol against two dermatophytes: Trichophyton rubrum and Trichophyton mentagrophyles:
(§2) Trichophyton rubrum and Trichophyton mentagrophytes were grown on potato dextrose agar (PDA) at 30° C. for 1-5 weeks. One clone was picked randomly and grown in sabouraud dextrose broth (SDB) to a density of 1×10^6 colony forming units (cfu) per ml. Various concentrations of test agents were added to the dermatophyte cultures and incubated for up to 4 weeks. Each week, an aliquot of the liquid culture was taken and placed on a PDA plate, and incubated for up to 3 weeks to assess growth. The plates were examined and photographed each week. Cultures were considered positive when more than 2 colonies were found per plate.

For experiment [2], the system named is Trichophyton rubrum. The experiment is described as follows: Liquid broth assay (MIC). Type of experiment: cell-based. The following applies: for MIC: Trichophyton rubrum, 672 h, liquid (broth) culture, incubated up to 4 weeks, one value without distinguishing the two dermatophytes, read-out: minimal inhibitory concentration (MIC); for antifungal activity ranking: liquid broth assay, rank 1 = most active, same ranking for both dermatophytes. On the procedure: as §1, §2

For `CCCCc1ccc(C(=O)O)nc1` [Fusaric acid, fusaric Acid], in experiment [1], the MIC stood at 500 µg/mL (≈ 2790 µM) and the antifungal activity ranking stood at 6. Besides, in experiment [2], the MIC worked out at 500 µg/mL (≈ 2790 µM) and the antifungal activity ranking turned out to be 6.
With `CN(C/C=C/C#CC(C)(C)C)Cc1cccc2ccccc12` [Terbinafine, terbinafine HCl], in experiment [1], the MIC is < 3.9 µg/mL and the antifungal activity ranking stood at 1. Besides, in experiment [2], the MIC was < 3.9 µg/mL and the antifungal activity ranking was found to be 1.
`CC(=O)N1CCN(c2ccc(OCC3COC(Cn4ccnc4)(c4ccc(Cl)cc4Cl)O3)cc2)CC1` (stereo not drawn) [ketoconazole]: the antifungal activity ranking in experiment [1] and in experiment [2] was 3 in each case.
In the case of `Clc1ccc(C(Cn2ccnc2)OCc2ccsc2Cl)c(Cl)c1` (stereo not drawn) [tioconazole], the antifungal activity ranking in experiment [1] and in experiment [2] was 2 in each case.
Regarding `Clc1ccc(COC(Cn2ccnc2)c2ccc(Cl)cc2Cl)cc1` (stereo not drawn) [econazole, econazole Nitrate], in experiment [1], the MIC was < 3.9 µg/mL and the antifungal activity ranking is reported as 1. In experiment [2], the MIC is < 3.9 µg/mL and the antifungal activity ranking came to 1.
For `CCCCCCCCCC(=O)OCC(O)CO` (racemic) [1-monocaprin, 1-decanoyl-rac-glycerol], the MIC in experiment [1] and in experiment [2] was 250 µg/mL (≈ 1010 µM) each time. Also, the antifungal activity ranking in experiment [1] and in experiment [2] was 5 in each case.
Turning to `Cc1cc(C2CCCCC2)n(O)c(=O)c1` [ciclopirox], in experiment [1], the MIC was found to be 31.3 µg/mL (≈ 151 µM) and the antifungal activity ranking was determined as 4. For the same compound, in experiment [2], the MIC stood at 31.3 µg/mL (≈ 151 µM) and the antifungal activity ranking amounted to 4.
